From PubChem BioAssay AID228 (DTP/NCI, 2004)
Several values for one entry are separate records, joined by “and”; a condition that tells them apart may be missing. Equal values may be shown once. Results filed as inconclusive are left out.

Test system: BDF1 mice, Friend leukemia sc, tumor weight T/C
Assay: NCI In Vivo Anticancer Drug Screen. Data for tumor model Friend Virus Leukemia (Solid) (subcutaneous) in B6D2F1 (BDF1) mice
Conditions: endpoint: mean tumor weight, schedule: Q01DX011 (ip), higher = larger tumour
Experimental: The antitumor activity of compounds was measured in mice bearing transplantable tumors. Survival or tumor size were measured and the results are expressed as the measurement made in the treated group (T) divided by the measurement made in the vehicle treated control group (C). The tumor model used in this assay is Friend Virus Leukemia (Solid) (subcutaneous) in B6D2F1 (BDF1) mice

[1] = dose: 12.5 mg/kg/injection, vehicle: carboxymethylcellulose (CMC)
[2] = dose: 43.0 mg/kg/injection, vehicle: carboxymethylcellulose (CMC)
[3] = dose: 50.0 mg/kg/injection, vehicle: carboxymethylcellulose (CMC)
[4] = dose: 75.0 mg/kg/injection, vehicle: carboxymethylcellulose (CMC)
[5] = dose: 25.0 mg/kg/injection, vehicle: carboxymethylcellulose (CMC)
[6] = dose: 100.0 mg/kg/injection, vehicle: carboxymethylcellulose (CMC)
[7] = dose: 250.0 mg/kg/injection, vehicle: carboxymethylcellulose (CMC)
[8] = dose: 125.0 mg/kg/injection, vehicle: carboxymethylcellulose (CMC)
[9] = dose: 0.1 mg/kg/injection, vehicle: carboxymethylcellulose (CMC)

## CCN(CC)CCNc1ccc(C)c2sc3ccccc3c(=O)c12
dose: 1.0 mg/kg/injection, vehicle: carboxymethylcellulose (CMC)
  T/C: 184 % of control
dose: 6.0 mg/kg/injection, vehicle: carboxymethylcellulose (CMC)
  T/C: 199 % of control
dose: 6.25 mg/kg/injection, vehicle: carboxymethylcellulose (CMC)
  T/C: 37 % of control
dose: 8.0 mg/kg/injection, vehicle: carboxymethylcellulose (CMC)
  T/C: 174 % of control
dose: 8.1 mg/kg/injection, vehicle: carboxymethylcellulose (CMC)
  T/C: 199 % of control
[1]
  T/C: 35 % of control
dose: 16.0 mg/kg/injection, vehicle: carboxymethylcellulose (CMC)
  T/C: 274 % of control
dose: 16.2 mg/kg/injection, vehicle: carboxymethylcellulose (CMC)
  T/C: 179 % of control
dose: 26.0 mg/kg/injection, vehicle: carboxymethylcellulose (CMC)
  T/C: 111 % of control
dose: 32.0 mg/kg/injection, vehicle: carboxymethylcellulose (CMC)
  T/C: 66 % of control
dose: 33.0 mg/kg/injection, vehicle: carboxymethylcellulose (CMC)
  T/C: 69 % of control
[2]
  T/C: 72 % of control
[3]
  T/C: 31 % of control and 32 % of control
[4]
  T/C: 3 % of control and 7 % of control

## CNC=O
[1]
  T/C: 80 % of control
[5]
  T/C: 57 % of control and 38 % of control
dose: 41.62 mg/kg/injection, vehicle: carboxymethylcellulose (CMC)
  T/C: 124 % of control
dose: 42.0 mg/kg/injection, vehicle: carboxymethylcellulose (CMC)
  T/C: 92 % of control
[2]
  T/C: 79 % of control
[3]
  T/C: 43 % of control
dose: 83.25 mg/kg/injection, vehicle: carboxymethylcellulose (CMC)
  T/C: 92 % of control
dose: 85.0 mg/kg/injection, vehicle: carboxymethylcellulose (CMC)
  T/C: 91 % of control
dose: 86.0 mg/kg/injection, vehicle: carboxymethylcellulose (CMC)
  T/C: 109 % of control
[6]
  T/C: 53 % of control
dose: 176.5 mg/kg/injection, vehicle: carboxymethylcellulose (CMC)
  T/C: 91 % of control
dose: 200.0 mg/kg/injection, vehicle: carboxymethylcellulose (CMC)
  T/C: 39 % of control
[7]
  T/C: 84 % of control
dose: 275.0 mg/kg/injection, vehicle: carboxymethylcellulose (CMC)
  T/C: 57 % of control
dose: 343.0 mg/kg/injection, vehicle: carboxymethylcellulose (CMC)
  T/C: 41 % of control

## O=c1[nH]cc(N(CCCl)CCCl)c(=O)[nH]1
dose: 0.21 mg/kg/injection, vehicle: carboxymethylcellulose (CMC)
  T/C: 87 % of control
dose: 0.42 mg/kg/injection, vehicle: carboxymethylcellulose (CMC)
  T/C: 99 % of control
dose: 0.42 mg/kg/injection, vehicle: saline
  T/C: 53 % of control
dose: 0.85 mg/kg/injection, vehicle: carboxymethylcellulose (CMC)
  T/C: 36 % of control
dose: 0.85 mg/kg/injection, vehicle: saline
  T/C: 47 % of control
dose: 1.3 mg/kg/injection, vehicle: saline
  T/C: 20 % of control
dose: 1.7 mg/kg/injection, vehicle: saline
  T/C: 13 % of control

## C[C@H]1C(=O)O[C@@H]2CCN3CC=C(COC(=O)[C@](C)(O)[C@@]1(C)O)[C@H]23
dose: 31.0 mg/kg/injection, vehicle: carboxymethylcellulose (CMC)
  T/C: 95 % of control
dose: 62.5 mg/kg/injection, vehicle: carboxymethylcellulose (CMC)
  T/C: 61 % of control
[8]
  T/C: 66 % of control
[7]
  T/C: 38 % of control

## O=c1[nH]c2cc(Cl)c(Cl)cc2o1
dose: 19.0 mg/kg/injection, vehicle: carboxymethylcellulose (CMC)
  T/C: 90 % of control
dose: 37.5 mg/kg/injection, vehicle: carboxymethylcellulose (CMC)
  T/C: 81 % of control
[4]
  T/C: 82 % of control
dose: 150.0 mg/kg/injection, vehicle: carboxymethylcellulose (CMC)
  T/C: 77 % of control

## Clc1ccc(N2CCN(CCCN3CCN(c4cccc(Cl)c4)CC3)CC2)cc1
dose: 7.5 mg/kg/injection, vehicle: carboxymethylcellulose (CMC)
  T/C: 93 % of control
dose: 15.0 mg/kg/injection, vehicle: carboxymethylcellulose (CMC)
  T/C: 85 % of control
dose: 30.0 mg/kg/injection, vehicle: carboxymethylcellulose (CMC)
  T/C: 62 % of control

## CC1(C)N=C(N)N=C(N)N1c1cccc(Cl)c1
dose: 2.3 mg/kg/injection, vehicle: carboxymethylcellulose (CMC)
  T/C: 91 % of control
dose: 4.6 mg/kg/injection, vehicle: carboxymethylcellulose (CMC)
  T/C: 104 % of control
dose: 9.2 mg/kg/injection, vehicle: carboxymethylcellulose (CMC)
  T/C: 108 % of control

## N#Cc1cn(C2OC(CO)C(O)C2O)c2ncnc(N)c12 (centres undefined)
dose: 0.05 mg/kg/injection, vehicle: carboxymethylcellulose (CMC)
  T/C: 68 % of control
[9]
  T/C: 72 % of control
dose: 0.15 mg/kg/injection, vehicle: carboxymethylcellulose (CMC)
  T/C: 71 % of control

## CO[C@@]12[C@H](COC(N)=O)C3=C(C(=O)C(C)=C(N)C3=O)N1C[C@@H]1N[C@@H]12
dose: 0.06 mg/kg/injection, vehicle: carboxymethylcellulose (CMC)
  T/C: 48 % of control
[9]
  T/C: 66 % of control
dose: 0.13 mg/kg/injection, vehicle: carboxymethylcellulose (CMC)
  T/C: 56 % of control
dose: 0.2 mg/kg/injection, vehicle: carboxymethylcellulose (CMC)
  T/C: 77 % of control
dose: 0.25 mg/kg/injection, vehicle: carboxymethylcellulose (CMC)
  T/C: 35 % of control and 45 % of control
dose: 0.4 mg/kg/injection, vehicle: carboxymethylcellulose (CMC)
  T/C: 100 % of control
dose: 0.5 mg/kg/injection, vehicle: carboxymethylcellulose (CMC)
  T/C: 28 % of control
dose: 0.8 mg/kg/injection, vehicle: carboxymethylcellulose (CMC)
  T/C: 75 % of control

## COc1cc(OC)c(OC)cc1/C=C\c1ccnc2ccccc12
dose: 63.0 mg/kg/injection, vehicle: carboxymethylcellulose (CMC)
  T/C: 78 % of control
[8]
  T/C: 60 % of control
[7]
  T/C: 64 % of control
dose: 500.0 mg/kg/injection, vehicle: carboxymethylcellulose (CMC)
  T/C: 52 % of control

## Nc1nc2n[nH]nc2c(=O)[nH]1
dose: 11.12 mg/kg/injection, vehicle: carboxymethylcellulose (CMC)
  T/C: 158 % of control
dose: 11.8 mg/kg/injection, vehicle: other
  T/C: 190 % of control
dose: 22.7 mg/kg/injection, vehicle: other
  T/C: 189 % of control
dose: 45.5 mg/kg/injection, vehicle: other
  T/C: 152 % of control
dose: 89.0 mg/kg/injection, vehicle: carboxymethylcellulose (CMC)
  T/C: 44 % of control
dose: 89.0 mg/kg/injection, vehicle: other
  T/C: 123 % of control

## CC(=O)Nc1ccc2nc3ccc(NC(C)=O)cc3[n+](-c3ccccc3)c2c1
[5]
  T/C: 101 % of control
[3]
  T/C: 112 % of control
[6]
  T/C: 92 % of control

## O=C1C(NC(=O)C2CCCCC2)=C(N2CC2)C(=O)C(NC(=O)C2CCCCC2)=C1N1CC1
dose: 22.0 mg/kg/injection, vehicle: carboxymethylcellulose (CMC)
  T/C: 106 % of control
[2]
  T/C: 82 % of control
dose: 87.0 mg/kg/injection, vehicle: carboxymethylcellulose (CMC)
  T/C: 62 % of control
dose: 350.0 mg/kg/injection, vehicle: carboxymethylcellulose (CMC)
  T/C: 61 % of control

## O=C(Nc1ccc(C2=NCCN2)cc1)c1cccc(C(=O)Nc2ccc(C3=NCCN3)cc2)c1
dose: 25.0 mg/kg/injection, vehicle: water
  T/C: 72 % of control
